In test [1] the test system is SK-HEP-1 cells. Description: Cancer cell viability assay (CellTiter-Glo 2.0), SK-HEP-1. Format: cell-based, Human. Particulars: SK-HEP-1, 72 hours compound treatment. The method, then:
(§1) Human liver cancer cell lines HepG2, Hep3B, Huh7, and SK-HEP-1 cells were rinsed and trypsinized with 0.25% trypsin (Corning #25-053-CI) in an incubator at 37° C. until detached. The cells were resuspended and seeded in 96-well plates to a density of 5,000 cells per well. Following cell adhesion, compounds were added to a final concentration of 2× dilution. 72 hours following compound treatment, CellTiter-Glo® 2.0 was added to the well in a 2:1 ratio of media/CellTiter-Glo® 2.0. The plates were shielded from light, shaken for 2 minutes, and incubated for 10 minutes. Luminescence was measured on a microplate reader and EC50 values were calculated using Prism 9 software.
For orientation: ATP-based viability assays read luminescence as a measure of living cells.

Test [2] relates to HepG2 cells. In words: Cancer cell viability assay (CellTiter-Glo 2.0), HepG2. In kind it is cell-based, Human. Particulars: HepG2, 72 hours compound treatment. The method, then:
as §1

The subject of test [3] is Huh7 cells. In words: Cancer cell viability assay (CellTiter-Glo 2.0), Huh7. Format: cell-based, Human. Particulars: Huh7, 72 hours compound treatment. The method, then:
as §1

Test [4] has as its target CDK9/CyclinT (Homo sapiens (Human), UniProt P50750). Description: CDK9 biochemical assay (Kinase-Glo Max luminescence). Particulars: 30° C. for 45 minutes. As to the method:
To each well of a 96-well plate was added 5× kinase assay buffer with 10 mM DTT (6 μL), 500 μM ATP (1 μL), 5×CDK substrate (10 μL), and water (8 μL). 5 μL of compound were added to the test and positive control groups, while 5 μL of solvent was added to the blank groups. 100 ng of CDK9/CyclinT in 20 μL water was added to the test and positive control groups, while 20 μL of 1× kinase assay buffer was added to the blank groups. The reaction mixtures were incubated at 30° C. for 45 minutes, and 50 μL of Kinase-Glo® Max was added to each well and the plates were shielded from light and incubated for 15 minutes at room temperature. Luminescence was measured on a microplate reader and IC50 values were calculated using Prism 9 software.

The subject of test [5] is Hep3B cells. In words: Cancer cell viability assay (CellTiter-Glo 2.0), Hep3B. In kind it is cell-based, Human. Particulars: 72 hours compound treatment. As to the method: as §1

CDK9/CyclinT, sequence (P50750 whole entry): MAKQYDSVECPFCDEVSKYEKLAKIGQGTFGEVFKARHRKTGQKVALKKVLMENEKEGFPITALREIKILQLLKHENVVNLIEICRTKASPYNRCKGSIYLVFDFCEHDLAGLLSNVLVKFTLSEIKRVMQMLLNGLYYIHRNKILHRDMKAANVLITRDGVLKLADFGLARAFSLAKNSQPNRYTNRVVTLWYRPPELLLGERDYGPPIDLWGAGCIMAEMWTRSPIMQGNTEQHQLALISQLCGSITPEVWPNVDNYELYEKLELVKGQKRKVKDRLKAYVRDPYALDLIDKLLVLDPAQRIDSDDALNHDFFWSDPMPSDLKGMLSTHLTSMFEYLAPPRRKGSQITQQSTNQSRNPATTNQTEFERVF
CDK9/CyclinT, sequence (O60563 whole entry partner): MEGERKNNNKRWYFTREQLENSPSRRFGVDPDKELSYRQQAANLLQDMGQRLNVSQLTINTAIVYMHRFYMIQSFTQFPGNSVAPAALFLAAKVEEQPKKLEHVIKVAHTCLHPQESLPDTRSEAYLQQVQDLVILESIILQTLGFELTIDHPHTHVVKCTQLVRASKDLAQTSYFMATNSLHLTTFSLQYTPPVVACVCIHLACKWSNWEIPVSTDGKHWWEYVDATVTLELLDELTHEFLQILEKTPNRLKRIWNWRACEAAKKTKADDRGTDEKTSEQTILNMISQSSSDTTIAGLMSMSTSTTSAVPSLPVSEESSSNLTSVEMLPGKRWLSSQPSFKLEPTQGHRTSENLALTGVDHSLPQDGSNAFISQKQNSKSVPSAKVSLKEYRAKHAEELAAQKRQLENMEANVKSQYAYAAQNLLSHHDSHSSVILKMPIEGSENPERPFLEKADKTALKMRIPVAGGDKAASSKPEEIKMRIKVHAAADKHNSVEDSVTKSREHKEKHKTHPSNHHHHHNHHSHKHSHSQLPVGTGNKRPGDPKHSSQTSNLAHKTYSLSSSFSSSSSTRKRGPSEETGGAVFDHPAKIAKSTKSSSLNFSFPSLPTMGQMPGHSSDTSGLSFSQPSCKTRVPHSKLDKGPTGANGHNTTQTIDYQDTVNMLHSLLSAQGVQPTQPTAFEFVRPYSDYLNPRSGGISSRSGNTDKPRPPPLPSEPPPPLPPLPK

For `C[C@@H](COCc1nn[nH]n1)NC1CCC(Nc2cc(-c3cccc(NCC4(C#N)CCOCC4)n3)c(Cl)cn2)CC1` (stereo partly drawn) [Compound 3, 4-(((2′-(((1S,4R)-4-(((S)-1-((2H-tetrazol-5-yl)methoxy)propan-2-yl)amino)cyclohexyl)amino)-5′-chloro-[2,4′-bipyridin]-6-yl)amino)methyl)tetrahydro-2H-pyran-4-carbonitrile], the concentration for a half-maximal effect (EC50) in test [1], in test [2] and in test [3] was more than 1000 nM in each case. Further, the IC50 (usually the midpoint of a concentration-inhibition curve) in test [4] is more than 10 nM.
On to `CCOC(=O)COC[C@@H](C)NC1CCC(Nc2cc(-c3cccc(NCC4(C#N)CCOCC4)n3)c(Cl)cn2)CC1` (stereo partly shown) [Compound 5], for which the EC50 (in general, the concentration at which the effect is half-maximal) in test [1] is less than 100 nM; in test [2], 500 to 1000 nM; in test [3] it was less than 100 nM. In test [4], the IC50 is less than 2.5 nM.
With `C[C@H](Cc1nnn[nH]1)NC1CCC(Nc2cc(-c3cccc(NCC4(C#N)CCOCC4)n3)c(Cl)cn2)CC1` (stereo partly drawn) [Compound 12, 4-(((2′-(((1R,4R)-4-(((R)-1-(1H-tetrazol-5-yl)propan-2-yl)amino)cyclohexyl)amino)-5′-chloro-[2,4′-bipyridin]-6-yl)amino)methyl)tetrahydro-2H-pyran-4-carbonitrile], the EC50 in test [2] is more than 1000 nM. In addition, the 50% inhibitory concentration (IC50) in test [4] is more than 10 nM.
In the same order, the values of `C[C@@H](Cc1nnn[nH]1)NC1CCC(Nc2cc(-c3cccc(NCC4(C#N)CCOCC4)n3)c(Cl)cn2)CC1` (stereo partly drawn) [Compound 13, 4-(((2′-(((1S,4R)-4-(((S)-1-(1H-tetrazol-5-yl)propan-2-yl)amino)cyclohexyl)amino)-5′-chloro-[2,4′-bipyridin]-6-yl)amino)methyl)tetrahydro-2H-pyran-4-carbonitrile] are more than 1000 nM and more than 10 nM.
On to `CCOC(=O)O[C@H](C)n1nnc(COC[C@@H](C)N[C@H]2CC[C@H](Nc3cc(-c4cccc(NCC5(C#N)CCOCC5)n4)c(Cl)cn3)CC2)n1` [Compound 21, (R)-1-(5-(((R)-2-(((1r,4R)-4-((5′-chloro-6-(((4-cyanotetrahydro-2H-pyran-4-yl)methyl)amino)-[2,4′-bipyridin]-2′-yl)amino)cyclohexyl)amino)propoxy)methyl)-2H-tetrazol-2-yl)ethyl ethyl carbonate], for which the EC50 is more than 1000 nM in test [2] and 500 to 1000 nM in test [5]. For the same molecule, the IC50 in test [4] was less than 2.5 nM.
The matching figures for `CCOC(=O)O[C@H](C)n1nnc(COC[C@H](C)N[C@H]2CC[C@H](Nc3cc(-c4cccc(NCC5(C#N)CCOCC5)n4)c(Cl)cn3)CC2)n1` [Compound 22, (R)-1-(5-(((S)-2-(((1r,4S)-4-((5′-chloro-6-(((4-cyanotetrahydro-2H-pyran-4-yl)methyl)amino)-[2,4′-bipyridin]-2′-yl)amino)cyclohexyl)amino)propoxy)methyl)-2H-tetrazol-2-yl)ethyl ethyl carbonate]: more than 1000 nM, 500 to 1000 nM and 2.5 to 5 nM.
The matching figures for `CCOC(=O)O[C@@H](C)n1nnc(COC[C@@H](C)N[C@H]2CC[C@H](Nc3cc(-c4cccc(NCC5(C#N)CCOCC5)n4)c(Cl)cn3)CC2)n1` [Compound 24, (S)-1-(5-(((R)-2-(((1r,4R)-4-((5′-chloro-6-(((4-cyanotetrahydro-2H-pyran-4-yl)methyl)amino)-[2,4′-bipyridin]-2′-yl)amino)cyclohexyl)amino)propoxy)methyl)-2H-tetrazol-2-yl)ethyl ethyl carbonate]: more than 1000 nM, more than 1000 nM and more than 10 nM.
The matching figures for `CCOC(=O)O[C@@H](C)n1nnc(COC[C@H](C)N[C@H]2CC[C@H](Nc3cc(-c4cccc(NCC5(C#N)CCOCC5)n4)c(Cl)cn3)CC2)n1` [Compound 25, (S)-1-(5-(((S)-2-(((1r,4S)-4-((5′-chloro-6-(((4-cyanotetrahydro-2H-pyran-4-yl)methyl)amino)-[2,4′-bipyridin]-2′-yl)amino)cyclohexyl)amino)propoxy)methyl)-2H-tetrazol-2-yl)ethyl ethyl carbonate]: more than 1000 nM, more than 1000 nM and more than 10 nM.
`CCOC(=O)O[C@H](C)n1nnnc1COC[C@@H](C)N[C@H]1CC[C@H](Nc2cc(-c3cccc(NCC4(C#N)CCOCC4)n3)c(Cl)cn2)CC1` [Compound 27, (R)-1-(5-(((R)-2-(((1r,4R)-4-((5′-chloro-6-(((4-cyanotetrahydro-2H-pyran-4-yl)methyl)amino)-[2,4′-bipyridin]-2′-yl)amino)cyclohexyl)amino)propoxy)methyl)-1H-tetrazol-1-yl)ethyl ethyl carbonate]: the concentration giving a half-maximal response (EC50) in test [2] and in test [5] was more than 1000 nM throughout. The concentration for half-maximal inhibition (IC50) in test [4] is less than 2.5 nM.
With `CCOC(=O)O[C@H](C)n1nnnc1COC[C@H](C)N[C@H]1CC[C@H](Nc2cc(-c3cccc(NCC4(C#N)CCOCC4)n3)c(Cl)cn2)CC1` [Compound 28, (R)-1-(5-(((S)-2-(((1r,4S)-4-((5′-chloro-6-(((4-cyanotetrahydro-2H-pyran-4-yl)methyl)amino)-[2,4′-bipyridin]-2′-yl)amino)cyclohexyl)amino)propoxy)methyl)-1H-tetrazol-1-yl)ethyl ethyl carbonate], the concentration giving a half-maximal response (EC50) in test [2] and in test [5] was more than 1000 nM in each case. The molecule also had a 50% inhibitory concentration (IC50) in test [4] of more than 10 nM.
`CCOC(=O)O[C@@H](C)n1nnnc1COC[C@@H](C)N[C@H]1CC[C@H](Nc2cc(-c3cccc(NCC4(C#N)CCOCC4)n3)c(Cl)cn2)CC1` [Compound 30, (S)-1-(5-(((R)-2-(((1r,4R)-4-((5′-chloro-6-(((4-cyanotetrahydro-2H-pyran-4-yl)methyl)amino)-[2,4′-bipyridin]-2′-yl)amino)cyclohexyl)amino)propoxy)methyl)-1H-tetrazol-1-yl)ethyl ethyl carbonate]: the concentration giving a half-maximal response (EC50) in test [2] was 500 to 1000 nM; in test [5], more than 1000 nM. The same molecule displayed a concentration for half-maximal inhibition (IC50) in test [4] of less than 2.5 nM.
Consider `CCOC(=O)O[C@@H](C)n1nnnc1COC[C@H](C)N[C@H]1CC[C@H](Nc2cc(-c3cccc(NCC4(C#N)CCOCC4)n3)c(Cl)cn2)CC1` [Compound 31, (S)-1-(5-(((S)-2-(((1r,4S)-4-((5′-chloro-6-(((4-cyanotetrahydro-2H-pyran-4-yl)methyl)amino)-[2,4′-bipyridin]-2′-yl)amino)cyclohexyl)amino)propoxy)methyl)-1H-tetrazol-1-yl)ethyl ethyl carbonate], for which the concentration for a half-maximal effect (EC50) in test [2] and in test [5] was more than 1000 nM in each case. Moreover, the IC50 in test [4] is less than 2.5 nM.
On to `C[C@@H](COCc1nnn(C)n1)N[C@H]1CC[C@H](Nc2cc(-c3cccc(NCC4(C#N)CCOCC4)n3)c(Cl)cn2)CC1` [Compound 34, 4-(((5′-chloro-2′-(((1S,4r)-4-(((S)-1-((2-methyl-2H-tetrazol-5-yl)methoxy)propan-2-yl)amino)cyclohexyl)amino)-[2,4′-bipyridin]-6-yl)amino)methyl)tetrahydro-2H-pyran-4-carbonitrile], for which the EC50 in test [2] is less than 100 nM; in test [5], 100 to 500 nM. In addition, in test [4], the IC50 was more than 10 nM.
Consider `C[C@H](COCc1nnnn1C)N[C@H]1CC[C@H](Nc2cc(-c3cccc(NCC4(C#N)CCOCC4)n3)c(Cl)cn2)CC1` [Compound 36, 4-(((5′-chloro-2′-(((1R,4r)-4-(((R)-1-((1-methyl-1H-tetrazol-5-yl)methoxy)propan-2-yl)amino)cyclohexyl)amino)-[2,4′-bipyridin]-6-yl)amino)methyl)tetrahydro-2H-pyran-4-carbonitrile], for which the EC50 was 100 to 500 nM in test [2] and 500 to 1000 nM in test [5]. The molecule also showed an IC50 in test [4] of less than 2.5 nM.
The matching figures for `C[C@@H](COCc1nnnn1C)N[C@H]1CC[C@H](Nc2cc(-c3cccc(NCC4(C#N)CCOCC4)n3)c(Cl)cn2)CC1` [Compound 37, 4-(((5′-chloro-2′-(((1S,4r)-4-(((S)-1-((1-methyl-1H-tetrazol-5-yl)methoxy)propan-2-yl)amino)cyclohexyl)amino)-[2,4′-bipyridin]-6-yl)amino)methyl)tetrahydro-2H-pyran-4-carbonitrile]: 100 to 500 nM, 100 to 500 nM and less than 2.5 nM.
In the same order, the values of `CC(COCCNS(=O)(=O)C(F)F)NC1CCC(Nc2cc(-c3cccc(NCC4(C#N)CCOCC4)n3)c(Cl)cn2)CC1` (stereo not shown) [Compound 41, N-(2-(2-(((1r,4r)-4-((5′-chloro-6-(((4-cyanotetrahydro-2H-pyran-4-yl)methyl)amino)-[2,4′-bipyridin]-2′-yl)amino)cyclohexyl)amino)propoxy)ethyl)-1,1-difluoromethanesulfonamide] are less than 100 nM, 100 to 500 nM and 5 to 10 nM.
`COC[C@@H](C)NC1CCC(Nc2cc(-c3cccc(NCC4(C#N)CCOCC4)n3)c(Cl)cn2)CC1` (stereo partly shown) [NVP-2, reference compound] yielded a half-maximal inhibitory concentration (IC50) in test [4] of 2.5 to 5 nM.

For the origin of these results see patent US11591322B2, “Certain chemical compositions and methods of use thereof” (Algen Biotechnologies, Inc., priority 2020, dated 2023).
